Entries after “also recorded” stand apart in the source; their conditions may differ. Like-named read-outs stand apart in the source and are kept apart here.
Legend:
[1] = molecular target: T1, glutathione reductase (GR) (Homo sapiens, UniProt P00390); conditions: cited from earlier work
T1 sequence (P00390 44-522): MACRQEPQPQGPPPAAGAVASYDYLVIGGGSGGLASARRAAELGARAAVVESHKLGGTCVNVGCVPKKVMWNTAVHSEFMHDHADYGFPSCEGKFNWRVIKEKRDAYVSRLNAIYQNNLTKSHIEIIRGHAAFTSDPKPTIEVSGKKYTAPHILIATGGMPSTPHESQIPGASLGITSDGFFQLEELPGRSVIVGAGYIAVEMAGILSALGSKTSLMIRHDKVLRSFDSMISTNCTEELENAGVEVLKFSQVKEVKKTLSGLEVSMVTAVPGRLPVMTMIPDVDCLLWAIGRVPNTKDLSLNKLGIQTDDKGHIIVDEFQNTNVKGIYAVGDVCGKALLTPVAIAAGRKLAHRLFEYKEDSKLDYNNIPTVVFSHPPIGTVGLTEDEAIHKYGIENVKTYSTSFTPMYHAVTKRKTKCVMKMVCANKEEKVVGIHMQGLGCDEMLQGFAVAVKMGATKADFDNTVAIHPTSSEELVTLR

[2] = system: mammalian thioredoxin reductase (TXR); conditions: cited from earlier work
[3] = molecular target: T1, glutathione reductase (GR); experiment: NADPH oxidation by glutathione reductase, without or with GSH; format: biochemical
Experimental: (§1) Table 4, below, illustrates that various Formula (I) compounds (i.e., dithiol-containing compounds) may act as alternative substrate inhibitors for the coupled GRX/GSH/GR system as measured by NADPH oxidation. The Formula (I) compound was utilized at a concentration of 0.5 mM.

[4] = molecular target: T2, coupled glutaredoxin (GRX)/glutathione (GSH)/glutathione reductase (GR) system (Homo sapiens, UniProt P35754); experiment: NADPH oxidation by coupled GRX/GSH/GR system; format: biochemical; conditions: in the presence of reduced glutathione and glutathione reductase
T2 sequence (P35754 1-106): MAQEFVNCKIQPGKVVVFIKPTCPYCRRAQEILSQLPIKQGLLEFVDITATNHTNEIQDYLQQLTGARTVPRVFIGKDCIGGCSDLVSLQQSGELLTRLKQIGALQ
Experimental: as §1

[5] = molecular target: T3, thioredoxin reductase (TXR) (Bos taurus, UniProt O62768); experiment: NADPH oxidation by thioredoxin reductase only; format: biochemical; conditions: listed as Tavocept™
T3 sequence (O62768 1-499): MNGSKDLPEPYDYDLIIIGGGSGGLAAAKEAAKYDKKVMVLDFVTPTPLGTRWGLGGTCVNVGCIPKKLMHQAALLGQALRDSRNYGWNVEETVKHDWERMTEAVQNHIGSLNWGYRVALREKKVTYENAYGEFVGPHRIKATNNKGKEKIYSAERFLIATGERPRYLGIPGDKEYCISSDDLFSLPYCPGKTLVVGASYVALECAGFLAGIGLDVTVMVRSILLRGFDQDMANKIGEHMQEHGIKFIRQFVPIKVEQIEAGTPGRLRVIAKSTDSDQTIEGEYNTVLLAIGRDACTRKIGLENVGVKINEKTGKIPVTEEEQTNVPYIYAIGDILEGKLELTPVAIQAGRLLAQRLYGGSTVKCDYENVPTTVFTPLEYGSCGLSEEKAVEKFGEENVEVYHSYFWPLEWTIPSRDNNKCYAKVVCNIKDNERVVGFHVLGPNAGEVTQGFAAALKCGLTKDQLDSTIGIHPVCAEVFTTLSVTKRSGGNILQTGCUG
Experimental: (§2) Biochemistry 21:6628-6633 (1982).
(§3) Data was then collected and plotted in Microsoft Excel. Error calculations, and graphical representations were performed in Microsoft Excel and Kaleidograph (ver. 3.5). Nonlinear data was graphically rendered using Kaleidograph. ANOVA and other statistical analyses were performed using SAS (ver. 8.2). Unless otherwise noted, significance level was set at 0.05, and error bars represent actual experimental standard deviation.

[6] = system: patients with advanced, Stage IIIB/IV, non-small cell lung carcinoma (NSCLC), including the adenocarcinoma sub-type; experiment: U.S. Phase II NSCLC Clinical Trial (dose-dense docetaxel/cisplatin with or without Tavocept™); format: in vivo, human; conditions: Tavocept™ arm vs non-Tavocept™ arm
Description: As utilized herein, the term “clinical trial” or “trial”, refers to: • (i) the Japan Phase III Clinical Trial disclosed in the present invention which was utilized to show the ability of Tavocept™ (also referred to in the literature as disodium 2,2′-dithio-bis-ethane sulfonate, dimesna, or BNP7787) to prevent and/or reduce peripheral neuropathy induced by paclitaxel/cisplatin combination therapy. The incidence and severity of adverse reactions, time to their onset, etc. and the like, were compared between patients treated with Tavocept™ and those given a placebo using Quality of Life (QOL) questionnaires (i.e., Peripheral Neuropathy Questionnaire (PNQ©) and CIPN-20)) and the National Cancer Institute-Common Toxicity Criteria (NCI-CTC). The effects of Tavocept™ on the Quality of Life (QOL) of patients under anticancer treatment were also evaluated using the QOL questionnaire, EORTC QLQ-C30. Whether or not Tavocept™ would affect the efficacy of paclitaxel/cisplatin combination therapy was also evaluated based on the response rate, aggravation-free survival period, and total survival period. […] Whether or not Tavocept™ would affect the efficacy of the dose-dense docetaxel/cisplatin combination therapy was also evaluated based on the response rate, aggravation-free survival period, and total survival period. […]

[7] = system: coupled thioredoxin (TX)/thioredoxin reductase (TXR)/NADPH system; format: biochemical, bovine
Experimental: as §2, §3
Table5, below, illustrates that various Formula (I) compounds (i.e., disulfide-containing compounds) of the present invention can serve as alternate substrate inhibitors for the coupled thioredoxin (TX)/thioredoxin reductase (TXR)/NADPH system as measured by the oxidation of NADPH. In Table5, the Formula (I) compounds were utilized at a concentration of 0.5 mM.

[8] = system: ovarian cancer cell lines; experiment: Cytotoxicity in ovarian cancer cell lines; format: cell-based, human; conditions: mesna (100 μM) in combination with oxaliplatin vs oxaliplatin alone controls
[9] = system: whole cells (reduction of TX/TXR and GRX substrates); experiment: Whole cell mediated disulfide reduction; format: cell-based; conditions: mesna in combination with cisplatin
[10] = system: non-small cell lung carcinoma (NSCLC) cell lines; experiment: Cytotoxicity in NSCLC cell lines; format: cell-based, human
brain cancer cells = experiment: Cytotoxicity in brain cancer cells; format: cell-based, human; conditions: oxaliplatin and mesna; observable but not statistically significant

| Compound | inhibition of GR (in words) ([1]; literature studies) | inhibition of TXR (in words) ([2]; literature studies) | other results |
| --- | --- | --- | --- |
| CS(=O)(=O)OCCCCOS(C)(=O)=O [busulfan] | not GR | irreversibly inhibited TXR in a concentration- and time-dependent manner | – |
| O=S(=O)([O-])CCSSCCS(=O)(=O)[O-].[Na+].[Na+] [BNP7787, disodium 2,2′-dithio-bis-ethane sulfonate] | – | – | substrate activity for glutathione reductase (in words) [3]: not a substrate for glutathione reductase; activity with glutaredoxin (in words) [4]: substrate-like activity; NADPH oxidation / substrate activity with thioredoxin reductase alone, absence of TX (in words) [5]: indistinguishable from background; also recorded: not thioredoxin reductase alone; increase in patient (median) survival, adenocarcinoma ([6]; listed as Tavocept): ~6.5 month; increase in patient (median) survival, adenocarcinoma ([6]; listed as Tavocept™): 6.54 month |
| NC(CSSCCS(=O)(=O)O)C(=O)O (stereo not drawn) [BNP7766] | – | – | substrate activity / NADPH oxidation by TXR in the presence of TX (in words) [7]: substrates |
| NC(CCSSCCS(=O)(=O)O)C(=O)O (stereo not drawn) [BNP7768] | – | – | substrate activity / NADPH oxidation by TXR in the presence of TX (in words) [7]: substrates |
| O=C(O)CCCc1ccc(N(CCCl)CCCl)cc1 [chlorambucil] | not GR | irreversibly inhibited TXR in a concentration- and time-dependent manner | – |
| O=P1(NCCCl)OCCCN1CCCl (stereo not drawn) [ifosfamide] | – | inhibited TXR | – |
| N[C@@H](CCC(=O)N[C@@H](CSSCCS(=O)(=O)O)C(=O)NCC(=O)O)C(=O)O [BNP7772] | – | – | substrate activity for glutathione reductase (in words) [3]: functions as an alternative substrate inhibitor; substrate activity / NADPH oxidation by TXR in the presence of TX (in words) [7]: substrates |
| N[C@@H](CSSCCS(=O)(=O)O)C(=O)NCC(=O)O [BNP7776] | – | – | substrate activity / NADPH oxidation by TXR in the presence of TX (in words) [7]: substrates |
| O=NN(CCCl)C(=O)NCCCl [carmustine] | can inhibit both GR and TXR | can inhibit both GR and TXR | – |
| O=S(=O)(O)CCS [mesna, sodium-2-mercaptoethane sulfonate] | – | – | cytotoxic effect of oxaliplatin [8]: markedly enhanced the cytotoxic effect; reduction of α-lipoic acid (TX/TXR substrate) or hydroxyethyldisulfide (GRX substrate) by whole cells [9]: enhanced the reduction; cytotoxic effect of oxaliplatin ([10]; mesna (100 μM) in combination with oxaliplatin vs oxaliplatin alone controls, NSCLC): markedly enhanced the cytotoxic effect; cytotoxic effect of paclitaxel ([10]; mesna (100 μM) in combination with paclitaxel vs paclitaxel alone controls): enhanced the cytotoxic effect; oxaliplatin cytotoxicity (brain cancer cells): lesser increase in oxaliplatin cytotoxicity |
| N.N.[Cl][Pt+2][Cl] [transplatin] | not GR | irreversibly inhibited TXR | – |
| N.N.O.[Cl][Pt+] [monohydrated complex] | not GR | irreversibly inhibited TXR | – |
| O=P1(N(CCCl)CCCl)NCCCO1 (stereo not drawn) [cyclophosphamide] | not GR | irreversibly inhibited TXR in a concentration- and time-dependent manner | – |
| N.N.O=C([O-])C1(C(=O)[O-])CCC1.[Pt+2] [carboplatin] | could not inhibit either TXR or GR | could not inhibit either TXR or GR | – |
| N.N.[Cl][Pt][Cl] [cisplatin, cis-diamminedichloroplatinum] | not GR | irreversibly inhibited TXR | – |
| N[C@@H](Cc1ccc(N(CCCl)CCCl)cc1)C(=O)O [melphalan] | not GR | irreversibly inhibited TXR in a concentration- and time-dependent manner | – |
| O=C1[O][Pt]2([NH][C@@H]3CCCC[C@H]3[NH]2)[O]C1=O [oxaliplatin] | – | – | inhibition of GR (in words) [1]: not GR; inhibition of TXR (in words) [2]: irreversibly inhibited TXR |

— patent publication US20160287540A1, “Increasing Cancer Patient Survival Time by Administration of Dithio-Containing Compounds” (BioNumerik Pharmaceuticals, Inc., priority 2015, published 2016)
